The source of these data is ChEMBL document CHEMBL5154836, “4,5-Dihydroxypyrimidine Methyl Carboxylates, Carboxylic Acids, and Carboxamides as Inhibitors of Human Cytomegalovirus pUL89 Endonuclease” (J Med Chem, 2022).

Data set [1] deals with T1, Tripartite terminase subunit 3 (Human betaherpesvirus 5, UniProt P16732).
T1 sequence (P16732 whole entry): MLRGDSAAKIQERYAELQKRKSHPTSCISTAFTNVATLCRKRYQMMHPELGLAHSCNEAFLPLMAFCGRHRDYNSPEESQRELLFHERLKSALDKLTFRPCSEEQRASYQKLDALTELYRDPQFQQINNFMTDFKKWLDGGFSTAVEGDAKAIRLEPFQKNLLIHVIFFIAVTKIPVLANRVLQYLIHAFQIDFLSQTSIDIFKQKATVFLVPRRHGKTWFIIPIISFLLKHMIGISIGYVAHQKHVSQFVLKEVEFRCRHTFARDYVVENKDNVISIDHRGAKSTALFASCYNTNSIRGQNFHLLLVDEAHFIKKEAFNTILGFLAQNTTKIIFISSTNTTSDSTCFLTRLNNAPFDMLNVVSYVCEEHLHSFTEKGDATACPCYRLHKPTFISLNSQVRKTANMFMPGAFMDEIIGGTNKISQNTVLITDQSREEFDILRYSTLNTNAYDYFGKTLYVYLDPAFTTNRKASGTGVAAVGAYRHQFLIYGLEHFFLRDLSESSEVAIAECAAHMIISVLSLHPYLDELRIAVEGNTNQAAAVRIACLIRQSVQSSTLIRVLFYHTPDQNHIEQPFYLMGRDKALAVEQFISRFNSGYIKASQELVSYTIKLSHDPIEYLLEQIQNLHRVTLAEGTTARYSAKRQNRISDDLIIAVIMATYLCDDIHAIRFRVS

Data set [2] is described as follows: Apparent permeability coefficient of the compound incubated for 5 hrs by LC-MS/MS analysis based PAMPA method. The class given is ADME. A general note: The PAMPA barrier holds no transporters, so it reflects passive diffusion.
For data set [3] the following is noted: mouse, microsomes, 1 h.
Description: Stability in mouse liver microsomes assessed as half life measured upto 60 mins in presence of NADPH by LC-MS/MS analysis
A short description of data set [4]: Stability of compound in human plasma as compound remaining measured for 6 hrs by LC-MS/MS analysis. The class given is ADME, cell-free. The conditions noted are these: read-out: Stability.
Data set [5] deals with HFF. In words: Cytotoxicity against HFF cells assessed as cell viability incubated for 168 hrs by MTS-based Cell Titer assay. The class given is toxicity. To be noted: human.
For data set [6] the following is noted: human, microsomes, 1 h.
Description: Stability in human liver microsomes assessed as half life measured upto 60 mins in presence of NADPH by LC-MS/MS analysis
Data set [7] in a line: Aqueous solubility of the compound in DPBS at pH 7.2 incubated for 72 hrs by LC-MS/MS analysis. The class given is physicochemical.
For data set [8] the following is noted: human, plasma, 24 h.
The nature of data set [9]: Stability of compound in CD-1 mouse plasma as compound remaining measured for 6 hrs by LC-MS/MS analysis. The class given is ADME, cell-free. The conditions noted are these: read-out: Stability.
The conditions of data set [10]: mouse, plasma, 24 h.

The structures appear in SMILES notation. In brackets after ≈: the same amount, converted by molar mass.

As a reminder, the IC50 is the concentration that gives 50% inhibition. The low end stands for higher potency, the high end for lower potency. In the case of `O=C(O)c1nc(Cc2ccc(F)cc2)[nH]c(=O)c1O`, the IC50 in [1] was determined as 0.74 µM. The same measure, in the same setting: as for `O=C(O)c1nc(Cc2ccc(Cl)cc2Cl)[nH]c(=O)c1O`, the figure is 3.8 µM; as for `COC(=O)c1nc(-c2ccc(F)cc2)[nH]c(=O)c1O`, 0.86 µM; as for `O=C(NCc1ccc(F)cc1)c1nc(-c2cccs2)nc(O)c1O`, 0.7 µM.

`O=C(NCc1ccc(F)c(F)c1)c1nc(-c2cccs2)[nH]c(=O)c1O`: the IC50 in data set [1] amounted to 0.79 µM.

With `COC(=O)c1nc(-c2cccs2)nc(O)c1O`, the permeability in data set [2] was 0.9 10^-6 cm/s. Further, in data set [1], it took 0.88 µM to reach half-maximal inhibition (IC50). The compound `Cc1ccc(CNC(=O)c2nc(-c3cccs3)nc(O)c2O)cc1` displayed an IC50 in data set [1] of 1.9 µM. On the same count and under the same terms, as for `O=C(O)c1nc(Cc2cccs2)[nH]c(=O)c1O`, the figure is 1.7 µM. For orientation: CC50 means the concentration giving 50% cytotoxicity. By solubility (thermodynamic) is commonly meant solubility found after equilibrating the solid with the medium. Consider `O=C(O)c1nc(-c2cccs2)nc(O)c1O`, for which the t1/2 was over 120 h in data set [3], over 120 h in data set [6], over 24 h in [8] and over 24 h in data set [10]. Also, the remaining at 6 h in data set [4] and in data set [9] was over 94% throughout. Besides, the CC50 in data set [5] is over 100 µM. This compound also showed a thermodynamic solubility at 72 h in data set [7] of 1480 µM (≈ 352 µg/mL). Turning to `O=C(O)c1nc(-c2ccc(-c3ccccc3)cc2)[nH]c(=O)c1O`, in [2], the permeability is 0.06 10^-6 cm/s. In addition, the IC50 in data set [1] turned out to be 1.5 µM. `COC(=O)c1nc(-c2ccccc2)[nH]c(=O)c1O` gave a concentration for half-maximal inhibition (IC50) in [1] of 1.1 µM. On the same count and under the same terms, the value for `COC(=O)c1nc(-c2ccco2)[nH]c(=O)c1O` was 3 µM; that for `O=C(O)c1nc(Cc2ccc(F)cc2F)[nH]c(=O)c1O` was 1.4 µM; that for `O=C(O)c1nc(-c2ccsc2)nc(O)c1O` was 2.7 µM. On the same count and under the same terms, the value for `O=C(O)c1nc(Cc2ccc(F)c(F)c2)[nH]c(=O)c1O` was 0.87 µM; that for `O=C(NCc1ccc(Cl)cc1)c1nc(-c2cccs2)nc(O)c1O` was 1.3 µM; that for `COC(=O)c1nc(-c2ccc(-c3ccccc3)cc2)[nH]c(=O)c1O` was 0.78 µM. The same measure, in the same setting: as for `COC(=O)c1nc(Cc2ccc(Cl)cc2Cl)[nH]c(=O)c1O`, the figure is 5.7 µM. `COC(=O)c1nc(Cc2ccc(F)cc2F)[nH]c(=O)c1O`: in data set [1], the IC50 was found to be 0.76 µM. Still for that read-out and setting: as for `O=C(NCc1ccc(C(F)(F)F)cc1)c1nc(-c2cccs2)[nH]c(=O)c1O`, the figure is 3 µM. Regarding `COc1ccc(CNC(=O)c2nc(C)[nH]c(=O)c2O)cc1`, the permeability in [2] is 12.4 10^-6 cm/s. In addition, the IC50 in [1] turned out to be 0.59 µM. The matching figures for `COC(=O)c1nc(Cc2ccc(Cl)c(Cl)c2)[nH]c(=O)c1O`: 3.1 10^-6 cm/s and 2.1 µM. In [1], `O=C(O)c1nc(-c2ccc(F)cc2)[nH]c(=O)c1O` yielded an IC50 of 0.54 µM. As to `Cc1nc(C(=O)O)c(O)c(=O)[nH]1`, in data set [1], inhibition was half-maximal at 2.1 µM (IC50). Take `O=C(O)c1nc(Cc2ccc(Cl)c(Cl)c2)nc(O)c1O`: the t1/2 in data set [3] is over 120 h; in data set [6] it was over 120 h; in data set [8], over 24 h; in [10], over 24 h. Moreover, the remaining at 6 h in data set [4] and in data set [9] was over 94% in each case. The permeability in [2] is 0.05 10^-6 cm/s. Moreover, in [7], the solubility (thermodynamic) at 72 h is at least 3170 µM. Half-maximal inhibition in data set [1] (IC50) required 0.67 µM. `O=C(O)c1nc(Cc2ccsc2)[nH]c(=O)c1O` gave an IC50 in data set [1] of 2.4 µM.

Take `Cc1ccsc1-c1nc(O)c(O)c(C(=O)O)n1`: in data set [1], the IC50 turned out to be 1.4 µM. Consider `Cc1nc(C(=O)NCc2ccc(Cl)c(Cl)c2)c(O)c(=O)[nH]1`, for which half-maximal inhibition in data set [1] (IC50) was put at 2.8 µM.

Turning to `Cc1ccc(Cc2nc(C(=O)O)c(O)c(=O)[nH]2)cc1`, the permeability in [2] is given as 0.07 10^-6 cm/s. Half-maximal inhibition in data set [1] (IC50) required 0.92 µM.
